Data from patent publication US20240158446A1, “CYCLIC COMPOUND HAVING SELECTIVE INHIBITORY ACTION ON KRAS OVER HRAS AND NRAS” (CHUGAI SEIYAKU KABUSHIKI KAISHA, priority 2021, published 2024).

Experiments:
[1] = target: GDP-bound HRAS wild-type protein (Homo sapiens, UniProt P01112); test: Binding to HRAS by surface plasmon resonance (SPR), Single Cycle Kinetics; conditions: SPR KD ratio HRAS/KRAS, class symbols
[2] = target: GDP-bound KRAS wild-type protein (Homo sapiens, UniProt P01116); test: Binding to KRAS by surface plasmon resonance (SPR), Single Cycle Kinetics; conditions: SPR Single Cycle Kinetics, GDP-bound KRAS wild-type protein, 1:1 binding model; read-out: KRAS KD
Chain of GDP-bound KRAS wild-type protein (P01116 whole entry): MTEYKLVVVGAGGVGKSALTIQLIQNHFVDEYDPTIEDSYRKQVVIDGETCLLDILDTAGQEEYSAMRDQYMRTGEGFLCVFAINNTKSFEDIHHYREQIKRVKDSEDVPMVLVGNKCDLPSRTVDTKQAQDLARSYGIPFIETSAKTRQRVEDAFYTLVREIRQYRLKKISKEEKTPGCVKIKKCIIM

[3] = target: GDP-bound NRAS wild-type protein (Homo sapiens, UniProt P01111); test: Binding to NRAS by surface plasmon resonance (SPR), Single Cycle Kinetics; conditions: SPR KD ratio NRAS/KRAS, class symbols
Chain of GDP-bound NRAS wild-type protein (P01111 whole entry): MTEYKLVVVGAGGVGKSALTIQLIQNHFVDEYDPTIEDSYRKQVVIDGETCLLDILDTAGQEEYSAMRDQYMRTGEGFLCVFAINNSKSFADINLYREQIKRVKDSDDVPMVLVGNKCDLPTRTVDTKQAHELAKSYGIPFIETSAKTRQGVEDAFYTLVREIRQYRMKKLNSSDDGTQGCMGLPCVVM

Chain of GDP-bound HRAS wild-type protein (P01112 whole entry): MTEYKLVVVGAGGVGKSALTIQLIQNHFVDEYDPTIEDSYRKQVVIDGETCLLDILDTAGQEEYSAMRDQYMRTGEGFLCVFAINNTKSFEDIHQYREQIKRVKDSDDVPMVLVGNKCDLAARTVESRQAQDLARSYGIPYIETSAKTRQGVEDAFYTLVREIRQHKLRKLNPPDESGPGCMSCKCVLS

| SMILES | HRAS/KRAS (ratio of KD value with respect to GDP-bound HRAS wild-type protein to KD value with respect to KRAS) [1] | Kd [2] [nM] | NRAS/KRAS (ratio of KD value with respect to GDP-bound NRAS wild-type protein to KD value with respect to KRAS) [3] |
| --- | --- | --- | --- |
| CCC(CC)[C@H]1C(=O)N(C)[C@H](C(=O)N(C)C)CC(=O)N(C)[C@H]2CCC/C=C/c3ccc(cc3)C[C@@H](C(=O)N(C)CC(=O)N[C@@H](CCc3ccc(Cl)c(Cl)c3)C(=O)N3CCC[C@H]3C(=O)NC3(CC(C)(C)C3)C(=O)N1C)N1CC/C=C\C[C@@H](C1=O)N(C)C(=O)CN(C)C(=O)[C@H]([C@@H](C)CC)NC2=O [PP2603] | A (a compound having 10 or more and less than 20 is denoted as A) | 0.44 | AA (a compound having 20 or more is denoted as AA) |
| CCC(CC)[C@H]1C(=O)N(C)[C@H](C(=O)N2CCCC2)CC(=O)N(C)[C@H]2CCC/C=C/c3ccc(cc3)C[C@@H](C(=O)N(C)CC(=O)N[C@@H](CCc3ccc(Cl)c(Cl)c3)C(=O)N3CCC[C@H]3C(=O)NC3(CC(C)(C)C3)C(=O)N1C)N1CC/C=C\C[C@@H](C1=O)N(C)C(=O)CN(C)C(=O)[C@H]([C@@H](C)CC)NC2=O [PP2604] | A (a compound having 10 or more and less than 20 is denoted as A) | 0.4 | AA (a compound having 20 or more is denoted as AA) |
| CCO[C@@H]1C[C@H]2C(=O)NC3(CCC3)C(=O)N(C)[C@@H](C3CCCC3)C(=O)N(C)[C@H](C(=O)N(C)C)CC(=O)N(C)[C@@H](CC3CCCC3)C(=O)N[C@@H]([C@@H](C)CC)C(=O)N(C)CC(=O)N(C)[C@H]3C/C=C\CCN(C3=O)[C@@H](Cc3ccc(C)cc3)C(=O)N(C)CC(=O)N[C@@H](CCc3cc(F)c(CC)c(OC)c3)C(=O)N2C1 [PP2674] | A (a compound having 10 or more and less than 20 is denoted as A) | 0.5 | A (a compound having 10 or more and less than 20 is denoted as A) |
| CCO[C@@H]1C[C@H]2C(=O)NC3(CCC3)C(=O)N(C)[C@@H](C3CCCC3)C(=O)N(C)[C@H](C(=O)N(C)C)CC(=O)N(C)[C@@H](CC3CCCC3)C(=O)N[C@@H]([C@@H](C)CC)C(=O)N(C)CC(=O)N(C)[C@H]3C/C=C\CCN(C3=O)[C@@H](Cc3ccc(C)cc3)C(=O)N(C)CC(=O)N[C@@H](CCc3cc(C)c(C(F)F)c(C)c3)C(=O)N2C1 [PP2675] | A (a compound having 10 or more and less than 20 is denoted as A) | 4.5 | A (a compound having 10 or more and less than 20 is denoted as A) |
| CCO[C@@H]1C[C@H]2C(=O)NC3(CCC3)C(=O)N(C)[C@@H](C3CCCC3)C(=O)N(C)[C@H](C(=O)N(C)C)CC(=O)N(C)[C@@H](CC3CCCC3)C(=O)N[C@@H]([C@@H](C)CC)C(=O)N(C)CC(=O)N(C)[C@H]3C/C=C\CCN(C3=O)[C@@H](Cc3ccc(C)cc3)C(=O)N(C)CC(=O)N[C@@H](CCc3cc(C)c(C(F)F)c(F)c3)C(=O)N2C1 [PP2676] | A (a compound having 10 or more and less than 20 is denoted as A) | 0.87 | A (a compound having 10 or more and less than 20 is denoted as A) |
| CCO[C@@H]1C[C@H]2C(=O)NC3(CCC3)C(=O)N(C)[C@@H](C3CCCC3)C(=O)N(C)[C@H](C(=O)N(C)C)CC(=O)N(C)[C@@H](CC3CCCC3)C(=O)N[C@@H]([C@@H](C)CC)C(=O)N(C)CC(=O)N(C)[C@H]3C/C=C\CCN(C3=O)[C@@H](Cc3ccc(C)cc3)C(=O)N(C)CC(=O)N[C@@H](CCc3cc(C)c(C(F)F)c(Cl)c3)C(=O)N2C1 [PP2677] | A (a compound having 10 or more and less than 20 is denoted as A) | 1.3 | A (a compound having 10 or more and less than 20 is denoted as A) |
| CCO[C@@H]1C[C@H]2C(=O)NC3(CCC3)C(=O)N(C)[C@@H](C3CCCC3)C(=O)N(C)[C@H](C(=O)N(C)C)CC(=O)N(C)[C@@H](CC3CCCC3)C(=O)N[C@@H]([C@@H](C)CC)C(=O)N(C)CC(=O)N(C)[C@H]3C/C=C\CCN(C3=O)[C@@H](Cc3ccc(C)cc3)C(=O)N(C)CC(=O)N[C@@H](CCc3cc(Cl)c(C(F)(F)F)c(Cl)c3)C(=O)N2C1 [PP2679] | A (a compound having 10 or more and less than 20 is denoted as A) | 0.099 | A (a compound having 10 or more and less than 20 is denoted as A) |
| CCO[C@@H]1C[C@H]2C(=O)NC3(CCC3)C(=O)N(C)[C@@H](C3CCCC3)C(=O)N(C)[C@H](C(=O)N(C)C)CC(=O)N(C)[C@@H](CC3CCCC3)C(=O)N[C@@H]([C@@H](C)CC)C(=O)N(C)CC(=O)N(C)[C@H]3C/C=C\CCN(C3=O)[C@@H](Cc3ccc(C)cc3)C(=O)N(C)CC(=O)N[C@@H](CCc3ccc(C4CC4)c(F)c3)C(=O)N2C1 [PP2683] | A (a compound having 10 or more and less than 20 is denoted as A) | 0.87 | A (a compound having 10 or more and less than 20 is denoted as A) |
